Measurements published in patent US20260240879A1, “TOPICAL PALA THERAPY FOR CANCER” (priority 2023, published 2026).

Key:
[1] = molecular target: aspartate transcarbamylase (Escherichia coli, UniProt P0A786); details: transition-state analog inhibitor; cited from earlier work
[2] = tested on: MOC-1 squamous cell carcinoma cells; experiment: Oral squamous cell carcinoma orthotopic xenograft (tongue); assay type: in vivo, C57Bl/6 mice; details: 2% (w/w) PALA (AP0536/29/02), tongue treated topically 5×/week
Experimental: FIG. 18: Tumor growth of oral squamous cell carcinoma orthotopic xenografts is retarded by topical PALA treatment. C57Bl/6 mice (males and females; n=6/group) were injected with MOC-1 squamous cell carcinoma cells in the tongue. Once palpable tumors formed, mouse tongues were treated topically 5×/week with vehicle (AP0536/29/02) or 2% (w/w) PALA (AP0536/29/02). Tumor volume was measured by caliper every 2-3 days. Data are graphed as mean±SEM. Significant differences were determined by Mixed-effects Model (REML) with Sidak's multiple comparison test. *p<0.05, ****p<0.0001.

[3] = tested on: normal human dermal fibroblasts; experiment: PALA stimulation of normal human dermal fibroblasts (bactericidal activity against MRSA, antimicrobial peptides); assay type: cell-based; details: cells stimulated for 16 h with PALA
Experimental: (§1) A. Bactericidal activity of normal human dermal fibroblasts stimulated by PALA treatment. Cells stimulated for 16 h with the indicated concentration of PALA. Conditioned supernatants added to log phase cultures of methicillin-resistant Staphylococcus aureus (MRSA) for 2 h and viable bacterial determined by selective plating. Mean±SD graphed. B. PALA-stimulated production of antimicrobial peptides in normal human dermal fibroblasts. Cells were stimulated as in A. and supernatants assayed by ELISA for human β-defensin 2 (HBD2) and human β-defensin 3 (HBD3). Mean±SD graphed. C. […] Cell lysates from the cells shown in A. were assayed for their ability to catalyze the formation of carbamyl aspartate (CA) in vitro. Percent change in CA levels graphed; mean±SD. […] D. Average number of tumors per mouse at the end of the treatment period (mean±SEM graphed). D. Mice treated for 10 weeks with vehicle (Aquaphor), 1%, 2%, or 5% PALA in Aquaphor. E. Mice treated for 4 weeks with vehicle (AP0536/29/02), 2% (w/w) PALA (AP0536/29/02), or 4% (w/w) PALA (AP0536/29/02).

[4] = tested on: B16 melanoma; experiment: B16 melanoma orthotopic xenograft model; assay type: in vivo,  female mice
Experimental: FIG. 17: Topical PALA treatment retards melanoma growth and sensitizes melanoma to anti-checkpoint inhibitor therapy in a B16 melanoma orthotopic xenograft model. C57BU/6 female mice (n=4-5/group) were injected subcutaneously bilaterally with B16 melanoma cells (10^5 cells/flank; 8-10 injections total). Tumor volume was measured by caliper every 2-3 days by personnel blinded to treatment group. Data from palpable tumors are graphed as mean±SEM. […] On day 12 post-injection, mice were treated topically with either vehicle (AP0536/29/02) or 1% (w/w) PALA (AP0536/29/02) daily for 12 days. […] On day 7 post-injection, mice were treated topically with either vehicle (AP0536/29/02) or 2% (w/w) PALA (AP0536/29/02) daily for 5 days. Tumors were harvested on day 14 post-injection and tumor lysates analyzed by immunoblot for PD-L1 protein levels and quantified by image densitometry using ImageJ relative to tubulin levels (loading control). Mean±SEM graphed. C. […] On day 7 post-injection, mice were treated topically with either vehicle (AP0536/29/02) or 2% (w/w) PALA (AP0536/29/02) daily for 5 days. Mice were also treated with either isotype or anti-PD-L1/atezolizumab antibodies (100 μg/mouse) every 48 hours intraperitoneally from day 7 to day 19. Significant differences were determined by 2-way ANOVA with Dunnett's multiple comparison test. ***p<0.001

[5] = tested on: UVB-induced NMSC (AK lesions and SCC tumors); experiment: UVB-induced NMSC mouse model: tumor number, area, growth phenotype and grade; details: for total tumors at endpoint: vehicle 12.5±2.4
[6] = mouse, in vivo
Experimental: The topical formulations of 2% PALA/50% acetone/10% glycerol, 5% imiquimod (IMQ), 5% 5-FU (5-FU), vehicle (50% acetone/10% glycerol) control, and Aquaphor were applied (~0.05 g/mouse) daily to the dorsal skin of SKH1-Elite female mice (8 weeks of age; n=5/group) for 7 days. […] Mice were monitored daily for weight change, skin appearance, and signs of distress. […] At harvest, spleen weights and colon lengths were measured.

[7] = Toxicity markers in UVB-tumor-bearing mice under topical treatment (weight, SAA, colon length, fecal LCN2)
Experimental: Serum amyloid A levels were measured in plasma samples using the Mouse SAA ELISA kit (E-90SAA, Immunology Consultants Laboratory, Inc.) according to manufacturer's instructions. Lipocalin-2 (LCN2) was quantified from pre-weighed stool samples homogenized in 0.5 mL PBS using the Mouse Lipocalin-2/NGAL DuoSet ELISA (DY1857) and DuoSet Ancillary Reagent Kit 2 (DY008, R&D Systems).

[8] = molecular target: T1, aspartate transcarbamylase (Homo sapiens, UniProt P27708); experiment: Aspartate transcarbamylase activity in lysates of PALA-treated fibroblasts; assay type: cell-based; details: at doses that induce maximal immune stimulation, 16 h
T1 construct: endogenous in cells; host or cells: normal human dermal fibroblasts
Experimental: as §1

[9] = 2% (w/w) PALA (AP0536/29/02), daily, 4 weeks
[10] = individual tumors, PALA n = 48, vehicle 7.3%

T1 sequence (P27708 2-2225 limits assumed): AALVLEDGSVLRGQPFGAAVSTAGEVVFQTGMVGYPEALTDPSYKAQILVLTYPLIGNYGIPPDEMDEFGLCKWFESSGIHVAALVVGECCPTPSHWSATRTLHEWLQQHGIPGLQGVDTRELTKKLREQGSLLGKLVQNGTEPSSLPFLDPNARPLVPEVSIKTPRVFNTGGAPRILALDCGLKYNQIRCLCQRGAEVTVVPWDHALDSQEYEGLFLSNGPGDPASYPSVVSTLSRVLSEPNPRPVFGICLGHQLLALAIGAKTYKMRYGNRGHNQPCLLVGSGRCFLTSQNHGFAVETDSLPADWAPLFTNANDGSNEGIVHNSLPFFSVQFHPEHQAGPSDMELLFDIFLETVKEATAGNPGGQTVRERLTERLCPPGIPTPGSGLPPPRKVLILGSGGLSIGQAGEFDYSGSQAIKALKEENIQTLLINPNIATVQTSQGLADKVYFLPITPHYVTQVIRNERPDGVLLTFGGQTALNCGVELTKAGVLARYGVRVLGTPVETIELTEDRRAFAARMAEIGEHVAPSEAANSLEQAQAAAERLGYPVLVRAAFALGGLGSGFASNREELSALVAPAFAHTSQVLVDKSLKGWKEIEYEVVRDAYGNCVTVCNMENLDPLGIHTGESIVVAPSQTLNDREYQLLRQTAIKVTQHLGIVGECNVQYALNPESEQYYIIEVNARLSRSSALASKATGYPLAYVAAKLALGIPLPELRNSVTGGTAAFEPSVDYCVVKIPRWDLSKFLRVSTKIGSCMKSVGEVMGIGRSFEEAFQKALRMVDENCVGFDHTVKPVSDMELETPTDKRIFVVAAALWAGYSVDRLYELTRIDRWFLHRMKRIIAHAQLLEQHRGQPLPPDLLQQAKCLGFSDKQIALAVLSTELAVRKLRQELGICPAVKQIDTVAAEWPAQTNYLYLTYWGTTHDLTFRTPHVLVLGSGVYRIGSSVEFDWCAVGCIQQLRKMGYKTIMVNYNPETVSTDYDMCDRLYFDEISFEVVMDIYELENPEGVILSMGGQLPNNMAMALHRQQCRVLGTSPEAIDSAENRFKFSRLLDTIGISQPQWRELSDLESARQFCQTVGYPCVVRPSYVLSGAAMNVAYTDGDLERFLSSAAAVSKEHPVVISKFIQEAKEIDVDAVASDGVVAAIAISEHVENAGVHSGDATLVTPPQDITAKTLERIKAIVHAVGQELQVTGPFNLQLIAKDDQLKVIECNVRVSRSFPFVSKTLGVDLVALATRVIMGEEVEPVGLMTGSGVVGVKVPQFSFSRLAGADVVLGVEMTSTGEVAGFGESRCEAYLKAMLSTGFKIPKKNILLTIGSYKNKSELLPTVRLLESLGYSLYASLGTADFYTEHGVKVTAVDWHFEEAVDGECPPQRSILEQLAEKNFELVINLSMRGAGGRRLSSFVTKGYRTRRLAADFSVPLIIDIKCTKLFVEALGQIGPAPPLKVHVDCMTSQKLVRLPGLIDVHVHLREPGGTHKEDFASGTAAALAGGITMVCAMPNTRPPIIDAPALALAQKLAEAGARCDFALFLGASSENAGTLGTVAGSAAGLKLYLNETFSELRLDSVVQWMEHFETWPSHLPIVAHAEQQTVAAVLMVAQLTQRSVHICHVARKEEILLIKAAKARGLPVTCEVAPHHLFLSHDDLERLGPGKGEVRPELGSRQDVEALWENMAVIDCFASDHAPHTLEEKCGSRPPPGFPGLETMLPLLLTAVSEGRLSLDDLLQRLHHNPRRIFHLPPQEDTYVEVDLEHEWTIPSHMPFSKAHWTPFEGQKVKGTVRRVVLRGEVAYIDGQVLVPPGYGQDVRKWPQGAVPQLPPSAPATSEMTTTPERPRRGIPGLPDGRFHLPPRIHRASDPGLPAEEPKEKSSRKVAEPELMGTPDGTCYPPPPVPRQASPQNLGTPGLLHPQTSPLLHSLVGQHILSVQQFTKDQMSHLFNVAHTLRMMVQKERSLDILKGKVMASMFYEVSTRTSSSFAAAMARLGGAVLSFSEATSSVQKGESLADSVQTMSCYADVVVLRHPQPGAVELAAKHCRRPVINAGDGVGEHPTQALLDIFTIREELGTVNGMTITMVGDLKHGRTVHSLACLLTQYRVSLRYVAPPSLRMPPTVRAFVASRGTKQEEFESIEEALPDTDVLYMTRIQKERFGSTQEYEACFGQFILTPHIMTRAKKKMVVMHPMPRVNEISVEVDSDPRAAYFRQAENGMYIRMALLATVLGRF
Sequence of aspartate transcarbamylase (Escherichia coli, UniProt P0A786) (P0A786 2-311): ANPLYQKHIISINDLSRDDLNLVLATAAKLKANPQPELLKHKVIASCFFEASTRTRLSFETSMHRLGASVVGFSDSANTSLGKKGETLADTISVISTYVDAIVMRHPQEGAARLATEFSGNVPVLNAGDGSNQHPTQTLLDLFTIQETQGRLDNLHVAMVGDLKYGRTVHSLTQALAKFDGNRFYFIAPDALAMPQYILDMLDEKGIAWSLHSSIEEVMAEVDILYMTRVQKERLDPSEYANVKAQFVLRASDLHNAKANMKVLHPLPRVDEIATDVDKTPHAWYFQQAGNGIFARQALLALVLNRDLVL

O=C(O)CC(NC(=O)CP(=O)(O)O)C(=O)O [PALA, N-phosphonacetyl-L-aspartate]
potency as inhibitor of aspartate transcarbamylase [1]: nanomolar potency
tumor growth (tumor volume) [2]: retarded
shape of dose-response curve (bactericidal activity, HBD2, HBD3) [3]: U-shaped dose-response curve
tumor growth (tumor volume) ([4]; 1% (w/w) PALA (AP0536/29/02), topical daily for 12 days from day 12 post-injection): retards tumor growth
PD-L1 protein levels in tumor lysates ([4]; 2% (w/w) PALA (AP0536/29/02), topical daily for 5 days): reduces expression of the checkpoint inhibitor PD-L1
response to anti-PD-L1 therapy ([4]; 2% (w/w) PALA daily for 5 days plus anti-PD-L1/atezolizumab 100 μg/mouse i.p. every 48 hours): sensitizes B16 melanoma to anti-PD-L1 therapy
total tumors at endpoint ([5]; 1% PALA in 50% acetone/10% glycerol, daily topical, 10 weeks): 11.7±3.8
average tumor burden, % of original size at endpoint ([5]; 1% PALA, daily topical, 10 weeks, vehicle 286.4%±62.6): 275.0%±84.7
shape of dose-response, average number of tumors per mouse at end of treatment ([5]; 1%, 2%, 5% PALA in Aquaphor 10 weeks, 4% (w/w) PALA 4 weeks): U-shaped dose-response curves
growth profile of individual tumors [5, 9]: lower percentage of continually growing tumors
mean tumor surface area per tumor (average tumor size) [5, 9]: significantly smaller average tumor size than either vehicle or 5% IMQ treated mice
endpoint tumor grade ([5]; 2% (w/w) PALA (AP0536/29/02), daily, 4 weeks, vs vehicle or 5% IMQ): fewer squamous cell carcinoma (SCC) and SCC in situ tumors
total tumors at endpoint ([5]; 2% PALA in 50% acetone/10% glycerol, daily topical, 10 weeks): 3.83±0.6
tumor levels of interleukin-1β ([5]; 2% PALA or 5% IMQ, daily, 4 weeks): elevated
mean tumor cross-sectional area, endpoint value ([5]; 2% PALA, daily topical, 10 weeks, vehicle 4.4, p=0.003): 2.4 mm^2
mean surface tumor area, endpoint value ([5]; 2% PALA, daily topical, 10 weeks, vehicle 197.1, p<0.0001): 30.3 mm^2
average tumor burden, % of original size at endpoint ([5]; 2% PALA, daily topical, 10 weeks, vehicle 286.4%±62.6, 252.3%±34.3): 99.2%±20.5
tumor levels of interferon-al ([5]; 2% PALA, daily, 4 weeks, compared with 5% IMQ): elevated only in 2% PALA treated mice
total tumors at endpoint ([5]; 5% PALA in 50% acetone/10% glycerol, daily topical, 10 weeks): 6.20±1.8
average tumor burden, % of original size at endpoint ([5]; 5% PALA, daily topical, 10 weeks, vehicle 286.4%±62.6): 91.6%±13.4
concentrations demonstrating anti-tumor activity ([5]; 10 weeks of daily topical treatment): ≥ 2%
tumors shrinking after an initial period of growth or continually reducing in size ([5]; PALA treated tumors, 10 weeks): 97.9%
proportion of AK/SCC in situ and benign lesions ([5]; PALA-treated mice, vehicle 31%, p<0.001): 62%
prevalence of well differentiated SCC and poorly differentiated SCC ([5]; PALA-treated mice, vehicle 69%, p<0.0001): 38%
Total Tumor Number: Poorly Differentiated SCC ([5]; excised tumors, 2% PALA daily 10 weeks, vehicle 25): 6
Total Tumor Number: Benign/ Hyperplastic ([5]; excised tumors, vehicle 0): 8
Total Tumor Number: AK/SCC in situ ([5]; excised tumors, vehicle 28): 23
Total Tumor Number: Well Differentiated SCC ([5]; excised tumors, vehicle 37): 12
Tumor Growth Outcome: Same, % [5, 10]: 0 (0%)
Tumor Growth Outcome: Smaller, % [5, 10]: 4.1%
Tumor Growth Phenotype: No Change, % [5, 10]: 0 (0%)
Tumor Growth Phenotype: Continual Shrinkage, % ([5]; individual tumors, PALA n = 48, vehicle 17.0%): 29.1%
Tumor Growth Outcome: Resolved, % ([5]; individual tumors, PALA n = 48, vehicle 26.8%): 83.3%
Tumor Growth Phenotype: Grow then Shrink, % ([5]; individual tumors, PALA n = 48, vehicle 29.2%): 68.7%
Tumor Growth Phenotype: Continual Growth, % ([5]; individual tumors, PALA n = 48, vehicle 46.3%): 2.0%
Tumor Growth Outcome: Larger, % ([5]; individual tumors, PALA n = 48, vehicle 58.5%): 12.5%
tumor burden and total tumor area ([5]; reformulated 2% (w/v) PALA (AP0536/29/02), daily, 6 weeks): effective in reducing tumor burden and total tumor area
Tumor Prevalence: Benign/ Hyperplastic ([5]; vehicle 0%): 13%
Tumor Area: Benign/ Hyperplastic, mean (SEM) ([5]; vehicle 0 (0)): 1.4 (0.3)
Tumors / Mouse: Benign/ Hyperplastic, mean (SEM) ([5]; vehicle 0 (0)): 0.5 (0.6)
Tumor Cross Sectional Area: AK/SCC in situ, mean (SEM) ([5]; vehicle 1.5 (0.7)): 1.1 (1.0) mm^2
Tumors / Mouse: Poorly Differentiated SCC, mean (SEM) ([5]; vehicle 2.0 (1.6)): 0.5 (0.9)
Tumors / Mouse: AK/SCC in situ, mean (SEM) ([5]; vehicle 2.3 (2.1)): 1.9 (1.2)
Tumors / Mouse: Well Differentiated SCC, mean (SEM) ([5]; vehicle 3.0 (1.8)): 1.0 (1.1)
Tumor Area: AK/SCC in situ, mean (SEM) ([5]; vehicle 3.4 (6.6)): 2.3 (2.0)
Tumor Cross Sectional Area: Well Differentiated SCC, mean (SEM) ([5]; vehicle 3.7 (2.0)): 3.1 (2.2) mm^2
Tumor Cross Sectional Area: Poorly Differentiated SCC, mean (SEM) ([5]; vehicle 9.2 (5.8)): 9.8 (6.4) mm^2
Tumor Area: Well Differentiated SCC, mean (SEM) ([5]; vehicle 10.7 (18.0)): 7.5 (4.5)
Tumor Prevalence: Poorly Differentiated SCC ([5]; vehicle 28%): 13%
Tumor Prevalence: AK/SCC in situ ([5]; vehicle 31%): 49%
Tumor Prevalence: Well Differentiated SCC ([5]; vehicle 41%): 25%
Tumor Area: Poorly Differentiated SCC, mean (SEM) ([5]; vehicle 59.5 (77.3)): 62.6 (70.0)
Tumor Cross Sectional Area: Benign/ Hyperplastic, mean (SEM) ([5]; vehicle n/a): 1.7 (2.0) mm^2
SAA levels on day 7 [6]: no changes
colon length / gross intestinal pathology on day 7 [6]: no changes
skin histology on day 7 [6]: no changes
skin irritation apparent (day) [6]: no skin irritation
spleen weight on day 7 [6]: no changes
skin irritation or weight loss ([7]; 1, 2 or 5% (w/v) PALA in 50% acetone/10% glycerol, daily topical, 10 weeks): no apparent skin irritation or weight loss
circulating levels of serum amyloid A (SAA) at endpoint ([7]; 1, 2 or 5% (w/v) PALA vs vehicle, daily topical, 10 weeks, trends of higher SAA at 1% and 5%): No significant differences
gross colon pathology and colon lengths at harvest ([7]; 1, 2 or 5% (w/v) PALA, daily topical, 10 weeks): None of the mice had any apparent gross colon pathology or significant differences in colon lengths
change in weight from the start of treatment ([7]; 2% (w/w) PALA (AP0536/29/02) vs 5% 5-FU and 5% IMQ, daily, 4 weeks): maintain weight is better than 5-FU or IMQ treated mice
weight, SAA levels, gross intestinal pathology, LCN2 levels vs vehicle ([7]; 2% PALA, daily topical, 10 weeks): no significant differences
fecal lipocalin-2 (LCN2) at endpoint ([7]; 5% PALA, daily topical, 10 weeks, vehicle 18.1±6.0, p=0.032): 186.8±121.1
concentration up to which topical PALA is well tolerated ([7]; 10 weeks of daily treatment): up to 5 % (w/v)
reduction of aspartate transcarbamylase enzyme activity (carbamyl aspartate formation) [8]: ~ 25%
